How the values were obtained:
[1] = test system: alpha-1; assay: potency of alpha-1-agonist relative to noradrenaline
From the text: For example, phenylephrine is an alpha-1-agonist and may replace noradrenaline.

[2] = circulating in blood, metabolized by the liver; cited from earlier work

Row | SMILES | times less potent than noradrenaline [1] | half-life [2]
1 | CNC[C@H](O)c1cccc(O)c1 [phenylephrine] | about 5 times | 
2 | CNCC(O)c1ccc(O)c(O)c1 (stereo not drawn) [adrenaline] |  | approximately a few minutes
3 | NC[C@H](O)c1ccc(O)c(O)c1 [noradrenaline] |  | approximately a few minutes
